PubChem BioAssay AID2060614 (Molecular Pharmacology Branch, DTP, NCI, 2025)

System: 598228-144-R-J1-PDC complex spheroids, viability
Test: Anticancer human tumor 598228-144-R-J1-PDC patient-derived serous endometrial adenocarcinoma cell line growth inhibition [CLK]
Conditions: for IC50: curve of first compound; for viability, T/C: stronger effect = lower value
Text: A high-throughput screen of multi-cell type tumor spheroids was designed to identify active combinations of […] and targeted small molecules. Complex spheroids include a stromal component modeled by human endothelial cells (HUVEC) and fibroblasts modeled by human mesenchymal stem cells (MSCs). The concentration ranges selected for each drug and investigational agent were based upon clinically achievable concentrations if the clinical Cmax of the agent was known.
Compounds. The drugs and investigational agents: cirtuvivint (SM08502; NSC835563), CC-671 (NSC850746), vemurafenib (NSC761431), tapotoclax (NSC804041), sotorasib (NSC818433), adagrasib (NSC831453), MRTX-1133 (NSC836407), BAY2416964 (NSC825713), copanlisib (NSC816437), inavolisib (NSC800729), abemaciclib (NSC768073), osimertinib (NSC779217), entinostat (NSC756642), eltanexor (KPT-8602, NSC794443), venetoclax (NSC766270), ceralasertib (NSC777638), bortezomib (NSC756655), olaparib (NSC753686), talazoparib (NSC767125), alisertib (NSC759677), peposertib (NSC802822), gemcitabine (NSC613327), 5-fluorouracil (NSC19893), SN-38 (NSC673596), oxaliplatin (NSC266046), paclitaxel (NSC125973), and doxorubicin (NSC123127), were obtained from the National Cancer Institute (NCI) Developmental Therapeutics Program Chemical Repository. The FDA-approved anticancer drug set is available from the Developmental Therapeutics Program at https://dtp.cancer.gov/organization/dscb/obtaining/available plates.htm. […] The stock solutions were prepared in dimethyl sulfoxide (DMSO, Sigma-Aldrich, St. Louis, MO, cat. D2650), except for the platinum complexes which were prepared in saline (Quality Biological, Gaithersburg, MD, cat. 114-055-101), at 800-fold the tested concentration and stored at -70 degrees C prior to their use. All drugs and investigational agents were tested over a range starting from a high concentration at or near the clinical Cmax and decreasing in half-log increments. If the clinical Cmax for an agent had not been determined, the highest concentration tested was 10 microM.
Cell Culture. All cells were maintained in an incubator at 37 degrees C and 5% CO2 with 95% humidity. The PDC lines were cultured according to standard operating procedures established by the NCI PDMR. Briefly, all PDCs were thawed and cultured in Matrigel-coated flasks prepared with a working solution of 1X Ham's F-12 nutrient mix, without supplementation (Invitrogen, Waltham, MA, cat. 11765054), 100 U/mL penicillin-streptomycin (Invitrogen, cat. 15140122), and 2.5% Matrigel (Corning Inc., Corning, NY, cat. 354248) for the first three passages. The 947758-054-R-J2-PDC line was cultured in 6B/Colon 1A media, which includes advanced DMEM/F-12 (Thermo Fisher Scientific, cat. 12634028), 10 mM HEPES (Thermo Fisher Scientific, cat. 15630080), 1X GlutaMAX supplement (Thermo Fisher Scientific, cat. 35050061), 0.1 mg/mL primocin (InvivoGen, cat. ant-pm-2), 10% defined fetal bovine serum, heat inactivated (HyClone Laboratories Inc., cat. SH30070.03HI), 1.25 mM N-Acetyl-L-cysteine (Sigma-Aldrich, cat. A9165), 10 mM nicotinamide (Sigma-Aldrich, cat. N0636), 1X B-27 supplement (Thermo Fisher Scientific, cat. 17504044), 1X N-2 supplement (Thermo Fisher Scientific, cat. 17502048), and 10 microM Y-27632 dihydrochloride (Tocris Bioscience, cat. 1254). The 876862-298-R-J1-PDC was cultured in 6E media, which includes all 6B/Colon 1A media components plus 50% L-WRN conditioned media (ATCC, cat. CRL-3276), 50 ng/mL recombinant human EGF recombinant protein (hEGF; Thermo Fisher Scientific, cat. PHG0311), 10 ng/mL recombinant human fibroblast growth factor 10 (hGFG-10; PeproTech, cat. 100-26), 1 ng/mL recombinant human fibroblast growth factor 2 (hFGF-2; PeproTech, cat. 100-18B), and 1 µM prostaglandin E2 (PGE2; Tocris, cat. 2296). The 227483-062-R1-J1-PDC line was cultured in Panc media, containing all 6E components except hFGF-2, with the addition of 500 nM SB-431542 (Selleckchem, cat. S1067) and 10 nM gastrin (Tocris, cat. 3006). […]

[1] = second compound 0.0316 µM, first compound 0.0316 µM
[2] = second compound 0.0316 µM, first compound 0.1 µM
[3] = second compound 0.0316 µM, first compound 0.316 µM
[4] = second compound 0.0316 µM, first compound 1 µM
[5] = second compound 0.0316 µM, first compound 3.16 µM
[6] = second compound 0.0316 µM, first compound 10 µM
[7] = second compound 0.1 µM, first compound 0.0316 µM
[8] = second compound 0.1 µM, first compound 0.1 µM
[9] = second compound 0.1 µM, first compound 0.316 µM
[10] = second compound 0.1 µM, first compound 1 µM
[11] = second compound 0.1 µM, first compound 3.16 µM
[12] = second compound 0.1 µM, first compound 10 µM
[13] = second compound 0.316 µM, first compound 0.0316 µM
[14] = second compound 0.316 µM, first compound 0.1 µM
[15] = second compound 0.316 µM, first compound 0.316 µM
[16] = second compound 0.316 µM, first compound 1 µM
[17] = second compound 0.316 µM, first compound 3.16 µM
[18] = second compound 0.316 µM, first compound 10 µM
[19] = second compound 1 µM, first compound 0.0316 µM
[20] = second compound 1 µM, first compound 0.1 µM
[21] = second compound 1 µM, first compound 0.316 µM
[22] = second compound 1 µM, first compound 1 µM
[23] = second compound 1 µM, first compound 3.16 µM
[24] = second compound 1 µM, first compound 10 µM
[25] = second compound 3.16 µM, first compound 0.0316 µM
[26] = second compound 3.16 µM, first compound 0.1 µM
[27] = second compound 3.16 µM, first compound 0.316 µM
[28] = second compound 3.16 µM, first compound 1 µM
[29] = second compound 3.16 µM, first compound 3.16 µM
[30] = second compound 3.16 µM, first compound 10 µM
[31] = second compound 10 µM, first compound 0.0316 µM
[32] = second compound 10 µM, first compound 0.1 µM
[33] = second compound 10 µM, first compound 0.316 µM
[34] = second compound 10 µM, first compound 1 µM
[35] = second compound 10 µM, first compound 3.16 µM
[36] = second compound 10 µM, first compound 10 µM
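Note: spheroids exposed to compounds for seven days before readout.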
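Throughout, for viability, T/C: 100% = DMSO vehicle control wells.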

`COc1ccc([C@@H](O)c2cc(-c3ncnc4cc(N5CCOCC5)ccc34)c(F)cc2Cl)nn1` + CN1CCN(c2cc(C(=O)Nc3cc4cc(-c5cnn(C)c5)ccc4cn3)ccn2)CC1 showed an IC50 (second compound 0.0316 µM) of 8400 nM, an IC50 (second compound 0.1 µM) of 5360 nM and an IC50 (second compound 0.316 µM) of less than 31.6 nM. For the same compound, the IC50 (second compound 1 µM) was less than 31.6 nM, the IC50 (second compound 3.16 µM) was less than 31.6 nM and the IC50 (second compound 10 µM) was less than 31.6 nM. It also gave a viability, T/C [1] of 122%, a viability, T/C [2] of 123% and a viability, T/C [3] of 105%. The viability, T/C [4] was 92.7%, the viability, T/C [5] was 65.3% and the viability, T/C [6] was 47.4%. It also gave a viability, T/C [7] of 123%, a viability, T/C [8] of 123% and a viability, T/C [9] of 89%. It also gave a viability, T/C [10] of 88.8%, a viability, T/C [11] of 59.5% and a viability, T/C [12] of 36.8%. For the same compound, the viability, T/C [13] was 15.2%, the viability, T/C [14] was 15.1% and the viability, T/C [15] was 15.9%. For the same compound, the viability, T/C [16] was 9.86%, the viability, T/C [17] was 7.76% and the viability, T/C [18] was 5.23%. The viability, T/C [19] was 1.49%, the viability, T/C [20] was 1.33% and the viability, T/C [21] was 1.57%. The viability, T/C [22] was 1.3%, the viability, T/C [23] was 1.12% and the viability, T/C [24] was 3.63%. For the same compound, the viability, T/C [25] was 1.56%, the viability, T/C [26] was 2.15% and the viability, T/C [27] was 1.78%. It also gave a viability, T/C [28] of 2.12%, a viability, T/C [29] of 1.65% and a viability, T/C [30] of 2.04%. It also gave a viability, T/C [31] of 0.95%, a viability, T/C [32] of 0.79% and a viability, T/C [33] of 4.21%. It also gave a viability, T/C [34] of 1.31%, a viability, T/C [35] of 3.59% and a viability, T/C [36] of 3.19%.
`CC1(C)CCC(CN2CCN(c3ccc(C(=O)NS(=O)(=O)c4ccc(NCC5CCOCC5)c([N+](=O)[O-])c4)c(Oc4cnc5[nH]ccc5c4)c3)CC2)=C(c2ccc(Cl)cc2)C1` + CN1CCN(c2cc(C(=O)Nc3cc4cc(-c5cnn(C)c5)ccc4cn3)ccn2)CC1 showed an IC50 (second compound 0.0316 µM) of 7680 nM, an IC50 (second compound 0.1 µM) of 7690 nM and an IC50 (second compound 0.316 µM) of less than 31.6 nM. The IC50 (second compound 1 µM) was less than 31.6 nM, the IC50 (second compound 3.16 µM) was less than 31.6 nM and the IC50 (second compound 10 µM) was less than 31.6 nM. For the same compound, the viability, T/C [1] was 138%, the viability, T/C [2] was 113% and the viability, T/C [3] was 111%. The viability, T/C [4] was 118%, the viability, T/C [5] was 114% and the viability, T/C [6] was 30.9%. The viability, T/C [7] was 116%, the viability, T/C [8] was 121% and the viability, T/C [9] was 116%. The viability, T/C [10] was 124%, the viability, T/C [11] was 113% and the viability, T/C [12] was 31%. For the same compound, the viability, T/C [13] was 19.3%, the viability, T/C [14] was 16.8% and the viability, T/C [15] was 14.4%. The viability, T/C [16] was 15.5%, the viability, T/C [17] was 11.9% and the viability, T/C [18] was 7.07%. The viability, T/C [19] was 1.25%, the viability, T/C [20] was 1.59% and the viability, T/C [21] was 2.76%. For the same compound, the viability, T/C [22] was 1.46%, the viability, T/C [23] was 2.58% and the viability, T/C [24] was 1.73%. For the same compound, the viability, T/C [25] was 1.65%, the viability, T/C [26] was 3.1% and the viability, T/C [27] was 1.66%. The viability, T/C [28] was 1.86%, the viability, T/C [29] was 3.99% and the viability, T/C [30] was 4.73%. The viability, T/C [31] was 0.92%, the viability, T/C [32] was 2.13% and the viability, T/C [33] was 0.62%. The viability, T/C [34] was 0.79%, the viability, T/C [35] was 2.58% and the viability, T/C [36] was 3.9%.
